# Laboratory results published in patent US20260216294A1, “BETA 2-ADRENERGIC RECEPTOR AGONISTS FOR TREATMENT OR PREVENTION OF MUSCLE WASTING” (ATROGI AB, priority 2023, published 2026).
# Assays:
# L6-myotubes [1] = experiment: Measurement of intracellular cAMP levels in differentiated L6-myotubes (Biological Example 3); assay type: cell-based; conditions: for Emax at 10 µM: 0.25 h
# Method in brief: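 Intracellular cAMP quantified by AlphaScreen after ethanol extraction and lysis of L6 myotubes. Cells were serum-starved overnight, then exposed for 15 min to compound (final 1×10^−5 M) or isoprenaline in IBMX-containing (1 mM) HBSS buffer, pH 7.4.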
# L6-myotubes [2] = experiment: Glucose uptake in differentiated L6-myotubes (Biological Example 2); assay type: cell-based; conditions: for Emax at 10 µM: read-out: Biological example 2 (GU)
# Method in brief: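 Uptake was quantified as radioactivity in 0.2 M NaOH lysates after a 10 min pulse of 50 nM ^3H-2-deoxyglucose. The pulse followed two agonist exposures at 1×10^−5 M final (isoprenaline or test compound): 1 h 40 min, then 20 min in glucose-free medium after washing. L6 myotubes had been starved overnight in medium with 0.5% fatty-acid-free BSA.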
# [3] = intracellular cAMP in differentiated L6-myotubes, compound at 10 μM, activity relative to isoproterenol at 10 μM
# [4] = glucose uptake in differentiated L6-myotubes, compound at 10 μM, activity relative to isoproterenol at 10 μM
# [5] = intracellular cAMP, compound at 10 μM relative to isoproterenol at 10 μM
# [6] = glucose uptake, compound at 10 μM relative to isoproterenol at 10 μM
SMILES,Emax at 10 µM (L6-myotubes [1]; [3]) [%],Emax at 10 µM (L6-myotubes [2]; [4]) [%],Emax at 10 µM (L6-myotubes [1]; [5]) [%],Emax at 10 µM (L6-myotubes [2]; [6]) [%],also measured
"O[C@@H](CNCC[C@H]1CC[C@H](OCc2ccccc2)CC1)c1cccc(F)c1 [Compound 288, (R)-1-(m-fluorophenyl)-2-{2-[(1r,4R)-4-(benzyloxy)cyclohexyl]ethylamino}-1-ethanol]",< 25,25 to 50,,,
"CC(C)(C[C@H]1CC[C@@H](NC(=O)OC(C)(C)C)CC1)NC[C@H](O)c1cncc(F)c1 [Compound 469, (1S,4s)-4-{2-[(R)-2-(5-fluoro-3-pyridyl)-2-hydroxyethylamino]-2-methylpropyl}cyclohexy-2-methyl-2-propanecarbamate]",,,,,"Biological example 3 (CAMP) (L6-myotubes [1]; [3]): − (if it less than 25% it is denoted with −); Biological example 2 (GU) (L6-myotubes [2]; [4]): +++ (If a compound at 10 μM shows activity of more than 75% of that of isoproterenol at 10 μM, the activity is denoted with +++)"
"CCCCNCC(O)c1ccc(F)c(NC(C)=O)c1F (stereo not shown) [Compound 42, N-{3-[2-(butylamino)-1-hydroxyethyl]-2,6-difluorophenyl}acetamide]",,,< 25,25 to 50,
"COC(=O)[C@H]1CC[C@@H](CCC(C)(C)NC[C@H](O)c2cncc(F)c2)CC1 [Compound 349, methyl (1S,4s)-4-{3-[(R)-2-(5-fluoro-3-pyridyl)-2-hydroxyethylamino]-3-methylbutyl} cyclohexanecarboxylate]",25 to 50,> 75,,,
CC1(C)C[C@H]([C@@H](O)c2cccc(F)c2)N1 [Compound 201],< 25,< 25,,,
"O[C@@H](c1cccc(F)c1)[C@H]1CC[C@H](Cc2ccc(Cl)cc2)N1 [Compound 394, (S)-{(2R,5R)-5-[(p-chlorophenyl)methyl]-2-pyrrolidinyl}(m-fluorophenyl)methanol]",< 25,50 to 75,,,
CCC[C@@H]1CCC[C@H]([C@H](O)c2cccc(O)c2)N1 [Compound 45],,,< 25,> 75,
"CC(C)(C)NC[C@H](O)c1cccc(F)c1F [Compound 76, (R)-2-(tert-butylamino)-1-(2,3-difluorophenyl)-1-ethanol]",,,25 to 50,> 75,
"CC(C)(CC[C@H]1CC[C@H](O)CC1)NC[C@H](O)c1ccccc1F [Compound 319, (R)-2-{1,1-dimethyl-3-[(1r,4S)-4-hydroxycyclohexyl]propylamino}-1-(o-fluorophenyl)-1-ethanol]",< 25,> 75,,,
"COc1ccc(C[C@H]2CC[C@H]([C@H](O)c3cccc(F)c3)N2)cc1 [Compound 374, (R)-{(2R,5R)-5-[(p-methoxyphenyl)methyl]-2-pyrrolidinyl}(m-fluorophenyl)methanol]",< 25,> 75,,,
"Oc1ccc(C(O)CNCCCC2CC2)cc1 (stereo not shown) [Compound 30, 2-(3-cyclopropylpropylamino) -1-(p-hydroxyphenyl)-1-ethanol]",,,< 25,> 75,
CN([C@H]1CC[C@@H](CC(C)(C)NC[C@H](O)c2cncc(F)c2)CC1)S(C)(=O)=O [Compound 520],< 25,50 to 75,,,
"CC12CC(C1)[C@@H]([C@H](O)c1cccc(N)c1F)N2 [Compound 244, (R)-{(S)-1-methyl-2-azabicyclo[[2.1.1]]hex-3-yl}(3-amino-2-fluorophenyl)methanol]",< 25,50 to 75,,,
CC(C)(C[C@H]1CC[C@H](N)CC1)NC[C@H](O)c1cccc(F)c1 [Compound 371],< 25,> 75,,,
"OC(CNCC1CCCCC1)c1ccccc1 (stereo not shown) [Compound 7, 2-[(cyclohexylmethyl)amino]-1-phenyl-1-ethanol]",,,< 25,25 to 50,
CC1(C)C[C@@H]([C@H](O)c2cccc(Cl)c2)N1 [Compound 232],< 25,25 to 50,,,
CCC[C@@H]1CCC[C@@H]([C@H](O)c2cccc(F)c2)N1 [Compound 116],,,< 25,25 to 50,
"CCCC(C)NCC(O)c1cccc(O)c1 (stereo not shown) [Compound 14, 1-(m-hydroxyphenyl)-2-(1-methylbutylamino)-1-ethanol]",,,< 25,> 75,
"O[C@@H](c1cccc(F)c1)C12CCC(C/C=C/c3ccccc3)(CC1)N2 [Compound 533, (S)-{4-[(E)-3-phenyl-2-propenyl]-7-azabicyclo[[2.2.1]]hept-1-yl}(m-fluorophenyl)methanol]",< 25,< 25,,,
CC12CC(C1)[C@H]([C@@H](O)c1cccc(F)c1)N2 [Compound 187],,,< 25,25 to 50,
"CCOC(=O)CO[C@H]1CC[C@@H](C(C)(C)NC[C@H](O)c2cccc(F)c2)CC1 [Compound 407, ethyl[[(1S,4s)-4-{1-[(R)-2-(m-fluorophenyl)-2-hydroxyethylamino]-1-methylethyl}cyclohexyloxy]]acetate]",< 25,50 to 75,,,
"CO[C@H]1CC[C@H](C[C@@H]2CC[C@H]([C@H](O)c3cccc(F)c3)N2)CC1 [Compound 326, (R)-[(2R,5S)-5-{[(1r,4S)-4-methoxycyclohexyl]methyl}-2-pyrrolidinyl] (m-fluorophenyl)methanol]",< 25,> 75,,,
"O[C@@H](c1cncc(F)c1)[C@H]1CC[C@H](Cc2ccc(Cl)cc2)N1 [Compound 405, (S)-{(2R,5R)-5-[(p-chlorophenyl)methyl]-2-pyrrolidinyl}(5-fluoro-3-pyridyl)methanol]",< 25,> 75,,,
"CC(C)(CC[C@H]1CC[C@H](O)CC1)NC[C@H](O)c1cncc(F)c1 [Compound 289, (R)-2-{1,1-dimethyl-3-[(1r,4S)-4-hydroxycyclohexyl]propylamino}-1-(5-fluoro-3-pyridyl)-1-ethanol]",< 25,25 to 50,,,
"CCCS(=O)(=O)N[C@H]1CC[C@@H](CC(C)(C)NC[C@H](O)c2cncc(F)c2)CC1 [Compound 523, (R)-2-{1,1-dimethyl-2-[(1s,4S)-4-(propylsulfonylamino)cyclohexyl]ethylamino}-1-(5-fluoro-3-pyridyl)-1-ethanol]",< 25,50 to 75,,,
"CS(=O)(=O)N(Cc1ccccc1)[C@H]1CC[C@@H](C[C@@H]2CC[C@H]([C@@H](O)c3cccc(F)c3)N2)CC1 [Compound 509, (S)-[(2R,5S)-5-({(1s,4R)-4-[(benzyl)-N-mesylamino]cyclohexyl}methyl)-2-pyrrolidinyl](m-fluorophenyl)methanol]",< 25,< 25,,,
"CCCCNCC(O)c1cc(F)c(N)c(F)c1 (stereo not shown) [Compound 37, 1-(4-amino-3,5-difluorophenyl)-2-(butylamino)-1-ethanol]",,,> 75,> 75,
"O[C@H](c1cccc(F)c1)C12CCC(COCc3ccc(F)cc3)(CC1)N2 [Compound 439, (R)-(m-fluorophenyl)(4-{[(p-fluorophenyl)methoxy]methyl}-7-azabicyclo[[2.2.1]]hept-1-yl)methanol]",25 to 50,> 75,,,
CC1(C)C[C@@H]([C@H](O)c2cncc(F)c2)N1 [Compound 216],< 25,25 to 50,,,
